Assay results published in the supplement of paper PMC10307832.

Tests used:
Experiment in all cases: relative viability (nuclei count vs DMSO), 5 days (fraction); higher = more cells survive
Olaparib + Lapatinib = compound: O=C(c1cc(Cc2n[nH]c(=O)c3ccccc23)ccc1F)N1CCN(C(=O)C2CC2)CC1 [Olaparib] + CS(=O)(=O)CCNCc1ccc(-c2ccc3ncnc(Nc4ccc(OCc5cccc(F)c5)c(Cl)c4)c3c2)o1 [Lapatinib] (partner 2 µM)
Summary of the method: (§1)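 Lung cancer cell lines were pin-tool dosed in 1536-well plates on the day after seeding, with either a lone drug or a fixed anchor-drug dose plus five library-drug doses (not always all listed) in √10 steps. Nuclei were counted on 4× images after 5 days. Relative viability is the ratio of treated-well to vehicle-well nuclei counts, with each value a median of duplicate plates.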

Olaparib + Palbociclib = compound: O=C(c1cc(Cc2n[nH]c(=O)c3ccccc23)ccc1F)N1CCN(C(=O)C2CC2)CC1 [Olaparib] + CC(=O)c1c(C)c2cnc(Nc3ccc(N4CCNCC4)cn3)nc2n(C2CCCC2)c1=O [Palbociclib] (partner 0.5 µM)
Summary of the method: as §1

Olaparib + Pemetrexed = compound: O=C(c1cc(Cc2n[nH]c(=O)c3ccccc23)ccc1F)N1CCN(C(=O)C2CC2)CC1 [Olaparib] + Nc1nc2[nH]cc(CCc3ccc(C(=O)N[C@@H](CCC(=O)O)C(=O)O)cc3)c2c(=O)[nH]1 [Pemetrexed] (partner 0.2 µM)
Summary of the method: as §1

Crizotinib + Trametinib = compound: C[C@@H](Oc1cc(-c2cnn(C3CCNCC3)c2)cnc1N)c1c(Cl)ccc(F)c1Cl [Crizotinib] + CC(=O)Nc1cccc(-n2c(=O)n(C3CC3)c(=O)c3c(Nc4ccc(I)cc4F)n(C)c(=O)c(C)c32)c1 [Trametinib] (partner 0.02 µM)
Summary of the method: as §1

Crizotinib + Pictilisib = compound: C[C@@H](Oc1cc(-c2cnn(C3CCNCC3)c2)cnc1N)c1c(Cl)ccc(F)c1Cl [Crizotinib] + CS(=O)(=O)N1CCN(Cc2cc3nc(-c4cccc5[nH]ncc45)nc(N4CCOCC4)c3s2)CC1 [Pictilisib] (partner 1 µM)
Summary of the method: as §1

## NCI-H1793
Olaparib + Lapatinib; first compound 0.08 µM
  relative viability: 0.641
Olaparib + Lapatinib; first compound 0.253 µM
  relative viability: 0.5
Olaparib + Lapatinib; first compound 2.53 µM
  relative viability: 0.578
Olaparib + Lapatinib; first compound 8 µM
  relative viability: 0.649
Olaparib + Palbociclib; first compound 0.08 µM
  relative viability: 0.274
Olaparib + Palbociclib; first compound 0.253 µM
  relative viability: 0.302
Olaparib + Palbociclib; first compound 2.53 µM
  relative viability: 0.327
Olaparib + Palbociclib; first compound 8 µM
  relative viability: 0.286
Olaparib + Pemetrexed; first compound 0.08 µM
  relative viability: 0.647
Olaparib + Pemetrexed; first compound 0.253 µM
  relative viability: 0.652
Olaparib + Pemetrexed; first compound 2.53 µM
  relative viability: 0.841
Olaparib + Pemetrexed; first compound 8 µM
  relative viability: 0.79
Crizotinib + Trametinib; first compound 0.03162 µM
  relative viability: 0.467
Crizotinib + Trametinib; first compound 0.1 µM
  relative viability: 0.399
Crizotinib + Trametinib; first compound 1 µM
  relative viability: 0.461
Crizotinib + Pictilisib; first compound 0.01 µM
  relative viability: 0.355
Crizotinib + Pictilisib; first compound 0.03162 µM
  relative viability: 0.385
Crizotinib + Pictilisib; first compound 0.1 µM
  relative viability: 0.339
Crizotinib + Pictilisib; first compound 1 µM
  relative viability: 0.364
